Where two headings read alike, the source gives them in different places.
What was measured:
cholesterol synthesis = assay: Ex-Vivo Fasted: inhibition of cholesterol synthesis in liver slices after oral dosing of fasted rats; conditions: Rattus norvegicus, 1 h, p.o. (Na+ salt), livers removed after one hour
Text: (§1) The effectiveness of the compounds of this invention as hypocholesterolemic agents may be determined by the following pharmacologic tests which evaluate the HMG-CoA reductase inhibitory activity of said compounds. The HMGR Screen and Ex Vivo Fasted procedures are standard test procedures; the HMG-CoA reductase inhibitory results generally correlate with the HMG-CoA reductase inhibitory activity found in human patients.
Rats of 170-210 g were maintained on a low cholesterol diet for one week prior to use. Compounds of the present invention (identified in the table below) were given orally in 0.5% methocel to fasted (fasted for 16 hours) rats. After one hour the rats were decapitated and their livers removed and transferred to chilled oxygenated Kreb's-Ringer-bicarbonate buffer (pH 7.4). The livers were then chopped into 0.5 mm slices using a McIlwain tissue chopper, and were suspended in the same buffer. Aliquots of the suspension containing 100 mg tissue were pipetted to culture tubes which contained [^14 C] sodium octanoate (2 μCi, 3 mM). The tubes were gassed with 95% O2 /CO2, capped and incubated at 37° C. in a shaking water bath at 150 oscillation/min. for two hours. The final assay volume was 1.0 ml. […] After visualization with iodine the cholesterol spots were cut and counted with liquid scintillation fluid. […]

HMG-CoA reductase [1] = assay: HMGR Screen: inhibition of HMG-CoA reductase solubilized from rat liver microsomes; assay type: biochemical
Experimental: as §1
Male rats were acclimated to an alternate 12 hours light-dark cycle for a period of 2-3 weeks. The animals, weighing 180-230 g, were fed ad libitum a rat chow containing 2% cholestyramine for 5 days prior to sacrifice at the mid-dark period. Liver microsomes were prepared and HMG-CoA reductase enzyme was solubilized from the microsomes by freeze-thaw manipulation in high ionic strength buffer. The enzyme preparation was stored at -80° C. in 300 μl portion samples. Prior to use, the enzyme was activated by warming at 37° C. for 30 minutes. A reaction mixture was prepared which consisted of, in a volume of 240 μl: 0.14M potassium phosphate buffer (pH 7.0); 0.18M KCl; 3.5 mM EDTA; 10 mM dithiothreitol; 0.1 mg/ml BSA; 30,000 cpm of [^14 C] HMG-CoA; 20 μM HMG-CoA, and 200 μg of activated enzyme with and without compounds of the present invention (in 10 μl DMSO). After 5 minutes incubation at 37° C. the reaction was initiated with 0.2 mM NADPH. The final assay volume was 300 μl. The reaction was then terminated with 100 μl of 1N HCl. After an additional incubation for 15 minutes at 37° C. to allow for complete lactonization of the product, the mixture was diluted with 3 ml distilled water. The diluted mixture was then poured over a 0.7×1.4 cm column containing 100-200 mesh Bio-Rex ion-exchange resin (chloride form of Bio-Rad) which was equilibrated with distilled water. With this resin the unreacted [^14 C] HMG-CoA was adsorbed and the product [^14 C] mevalonolactone was eluted (80% recovery) directly into scintillation vials. After the addition of 10 ml of Aquasol, radioactivities of the samples were measured in a scintillation counter. Results are reported as % inhibition of the enzyme in the presence of a given concentration of a compound of the present invention as compared with the activity of the enzyme in the absence of said compound, i.e., in the absence of inhibitor.

sterol synthesis = conditions: et al., cited from earlier work
HMG-CoA reductase [2] = conditions: Brown, et al., J. Biol. Chem. 249 (22), 7306 (1974); cited from earlier work
[3] = Schroepfer, et al., Proc. Natl. Acad. Sci., USA 81, 6861-6865 (1984); cited from earlier work
[4] = Kandutsch, J. Biol. Chem. 248 (24), 8408 (1974)
[5] = Schroepfer, J. Biol. Chem. 252 (24), 8975 (1977)

SMILES: CCC(C)(C)C(=O)O[C@H]1C[C@H]2C(=C3CC[C@H](CC[C@@H]4C[C@@H](O)CC(=O)O4)[C@]31C)CC[C@@H]1C[C@H](O)CC[C@@]12C [Example 5, 12α-(2,2-dimethyl)butyryloxy-3α-hydroxy-17β-[2-(4(R)-hydroxy-3,4,5,6-tetrahydro-2H-pyran-2-on-6(R)-yl)-ethyl]-5β-androst-8(14)-ene]
- inhibition at 3 mg/kg (cholesterol synthesis): 47%
- HMGR Screen % Inhibition (HMG-CoA reductase [1]; Lactone Form, at 1.6 μM): 50%
- HMGR Screen % Inhibition (HMG-CoA reductase [1]; Ring-opened/Sodium Salt, at 16.9 nM): 50%

SMILES: CC(C)CCC[C@@H](C)[C@H]1CC[C@H]2[C@@H]3[C@H](O)C=C4C[C@@H](O)CC[C@]4(C)[C@H]3CC[C@]12C [7α-hydroxycholesterol]
- inhibition of sterol synthesis (sterol synthesis; [4]): inhibit sterol synthesis

SMILES: CO[C@H]1CC[C@@]2(C)[C@@H](CC=C3[C@@H]2CC[C@]2(C)[C@@H]([C@H](C)CCCC(C)C)C[C@H](O)[C@@]32C)C1 [3β-methoxy-14α-methyl-5α-cholest-7-en-15α-ol]
- inhibition of sterol synthesis (sterol synthesis; [5]): potent inhibitors of sterol synthesis

SMILES: CC(C)CCC[C@@H](C)[C@H]1C[C@@H](O)[C@@H]2C3=CC[C@H]4C[C@@H](O)CC[C@]4(C)[C@H]3CC[C@]12C [5α,14β-cholest-7-en-3β,15β-diol]
- inhibition of sterol synthesis (sterol synthesis; [5]): potent inhibitors of sterol synthesis

SMILES: CCC(C)(C)C(=O)O[C@H]1C[C@H]2C(=C3CC[C@H]([C@H](C)CC4CC(O)CC(=O)O4)[C@]31C)CC[C@@H]1C[C@H](O)CC[C@@]12C (stereo partly drawn) [Example 4, 12α-(2,2-dimethyl)butyryloxy-3α-hydroxy-17β-[3-(4(R)-hydroxy-3,4,5,6-tetrahydro-2H-pyran-2-on-6(R)-yl)-2(R)-2-propyl]-5β-androst-8(14)ene and 12α-(2,2-dimethyl)butyryloxy-3α-hydroxy-17β-[3-(4(S)-hydroxy-3,4,5,6-tetrahydro-2H-pyran-2-on-6(S)-yl)-2(R)-2-propyl]-5β-androst-8(14)-ene]
- HMGR Screen % Inhibition (HMG-CoA reductase [1]; Lactone Form, at 3 μM): 19%
- HMGR Screen % Inhibition (HMG-CoA reductase [1]; Ring-opened/Sodium Salt, at 119 nM): 50%

SMILES: CCC(C)(C)C(=O)O[C@H]1C[C@H]2[C@@H](CC[C@@H]3C[C@H](O)CC[C@@]32C)[C@@H]2CC[C@H]([C@H](C)CC3CC(O)CC(=O)O3)[C@@]12C (stereo partly drawn) [Example 2, 12α-(2,2-dimethyl)butyryloxy-3α-hydroxy-17β-[3-(4(R)-hydroxy-3,4,5,6-tetrahydro-2H-pyran-2-on-6(R)-yl)-2(R)-2-propyl]-5β-androstane and 12α-(2,2-dimethyl)butyryloxy-3α-hydroxy-17β-[3-(4(S)-hydroxy-3,4,5,6-tetrahydro-2H-pyran-2-on-6(S)-yl)-2(R)-2-propyl]-5β-androstane]
- HMGR Screen % Inhibition (HMG-CoA reductase [1]; Lactone Form, at 30 μM): 33%
- HMGR Screen % Inhibition (HMG-CoA reductase [1]; Ring-opened/Sodium Salt, at 352 nM): 50%

SMILES: CC(C)CCC[C@@H](C)[C@H]1CC(O)C2=C3C(O)C[C@H]4C[C@@H](O)CC[C@]4(C)[C@H]3CC[C@@]21C (stereo partly drawn) [5α-cholest-8(14)-en-3β,7.xi.,15.xi.-triol]
- inhibition of sterol synthesis (sterol synthesis; [5]): potent inhibitors of sterol synthesis

SMILES: CC(C)CCC[C@@H](C)[C@H]1CC[C@H]2[C@@H]3[C@@H](O)C=C4C[C@@H](O)CC[C@]4(C)[C@H]3CC[C@]12C [7β-hydroxycholesterol]
- inhibition of sterol synthesis (sterol synthesis; [4]): inhibit sterol synthesis

SMILES: CO[C@H]1CC[C@@]2(C)[C@@H](CC=C3[C@@H]2CC[C@]2(C)[C@@H]([C@H](C)CCCC(C)C)C[C@@H](O)[C@@]32C)C1 [3β-methoxy-14α-methyl-5α-cholest-7-en-15β-ol]
- inhibition of sterol synthesis (sterol synthesis; [5]): potent inhibitors of sterol synthesis

SMILES: CC(C)CCC[C@@H](C)[C@H]1C[C@@H](O)[C@@]2(C)C3=CC[C@H]4C[C@@H](O)CC[C@]4(C)[C@H]3CC[C@]12C [14α-methyl-5α-cholest-7-en-3β,15β-diol]
- inhibition of sterol synthesis (sterol synthesis; [5]): potent inhibitors of sterol synthesis

SMILES: CC(C)CCC[C@@H](C)[C@H]1C[C@H](O)C2=C3CC[C@H]4C[C@@H](O)CC[C@]4(C)[C@H]3CC[C@@]21C [5α-cholest-8(14)-en-3β,15α-diol]
- inhibition of sterol synthesis (sterol synthesis; [5]): potent inhibitors of sterol synthesis

SMILES: CC(C)CCC[C@@H](C)[C@H]1C[C@H](O)[C@@]2(C)C3=CC[C@H]4C[C@@H](O)CC[C@]4(C)[C@H]3CC[C@]12C [14α-methyl-5α-cholest-7-en-3β,15α-diol]
- inhibition of sterol synthesis (sterol synthesis; [5]): potent inhibitors of sterol synthesis

SMILES: CC(C)CCC[C@@H](C)[C@H]1CC[C@H]2[C@@H]3C(=O)C=C4C[C@@H](O)CC[C@]4(C)[C@H]3CC[C@]12C [7-ketocholesterol]
- suppression of HMG-CoA reductase activity (HMG-CoA reductase [2]): suppress HMG-CoA reductase activity
- inhibition of sterol synthesis (sterol synthesis; [4]): inhibit sterol synthesis

SMILES: CCC(C)(C)C(=O)O[C@H]1C[C@H]2[C@@H](CC[C@@H]3C[C@H](O)CC[C@@]32C)[C@@H]2CCC=C(/C=C/C3CC(O)CC(=O)O3)[C@@]12C (stereo partly drawn) [Example 1, 12α-(2,2-dimethyl)butyryloxy-3α-hydroxy-17a-[E-2-(4(R)-hydroxy-3,4,5,6-tetrahydro-2H-pyran-2-on-6(S)-yl)ethenyl]-D-homo-5β-androst-17-ene and 12α-(2,2-dimethyl)butyryloxy-3α-hydroxy-17a-[E-2-(4(S)-hydroxy-3,4,5,6-tetrahydro-2H-pyran-2-on-6(R)-yl)ethenyl]-D-homo-5β-androst-17-ene]
- HMGR Screen % Inhibition (HMG-CoA reductase [1]; Lactone Form, at 5.9 μM): 50%
- HMGR Screen % Inhibition (HMG-CoA reductase [1]; Ring-opened/Sodium Salt, at 228 nM): 50%

SMILES: CC(C)CCC[C@@H](C)[C@H]1C[C@@H](O)C2=C3CC[C@H]4C[C@@H](O)CC[C@]4(C)[C@H]3CC[C@@]21C [5α-cholest-8(14)-en-3β,15β-diol]
- inhibition of sterol synthesis (sterol synthesis; [5]): potent inhibitors of sterol synthesis

SMILES: CC(C)CCC[C@@H](C)[C@H]1CC(=O)C2=C3CC[C@H]4C[C@@H](O)CC[C@]4(C)[C@H]3CC[C@@]21C [5α-cholest-8(14)-en-3β-ol-15-one]
- hypocholesterolemic activity [3]: significant hypocholesterolemic acitivity
- inhibition of sterol synthesis (sterol synthesis; [5]): potent inhibitors of sterol synthesis

SMILES: CC(C)CCC[C@@H](C)[C@H]1C[C@H](O)[C@@H]2C3=CC[C@H]4C[C@@H](O)CC[C@]4(C)[C@H]3CC[C@]12C [5α,14β-cholest-7-en-3β,15α-diol]
- inhibition of sterol synthesis (sterol synthesis; [5]): potent inhibitors of sterol synthesis

SMILES: CCC(C)(C)C(=O)O[C@H]1C[C@H]2[C@@H]([C@H](OC(C)=O)C[C@@H]3C[C@H](O)CC[C@@]32C)[C@@H]2CC[C@H]([C@H](C)CC3CC(O)CC(=O)O3)[C@@]12C (stereo partly drawn) [Example 3, 7α-acetoxy-12α-(2,2-dimethyl)butyryloxy-3α-hydroxy-17β-[3-(4(R)-hydroxy-3,4,5,6-tetrahydro-2H-pyran-2-on-6(R)-yl)-2(R)-2-propyl]-5β-androstane and 7α-acetoxy-12α-(2,2-dimethyl)butyryloxy-3α-hydroxy-17β-[3-(4(S)-hydroxy-3,4,5,6-tetrahydro-2H-pyran-2-on-6(S)-yl)-2(R)-2-propyl]-5β-androstane]
- HMGR Screen % Inhibition (HMG-CoA reductase [1]; Lactone Form, at 30 μM): 23%
- HMGR Screen % Inhibition (HMG-CoA reductase [1]; Ring-opened/Sodium Salt, at 300 nM): 21%

SMILES: CC(C)CCC[C@@H](C)[C@H]1CC(=O)[C@@]2(C)C3=CC[C@H]4C[C@@H](O)CC[C@]4(C)[C@H]3CC[C@]12C [14α-methyl-5α-cholest-7-en-3β-ol-15-one]
- inhibition of sterol synthesis (sterol synthesis; [5]): potent inhibitors of sterol synthesis

Reference: patent publication US5216015A, “Compounds having hypocholesterolemic properties” (priority 1991, dated 1993)
